Publication PMC4320118, “Micheliolide Derivative DMAMCL Inhibits Glioma Cell Growth In Vitro and In Vivo” (PLoS ONE, 2015)
Like-named read-outs stand apart in the source and are kept apart here.

Assay: Biodistribution of DMAMCL in rats after a single oral dose (UPLC-MS/MS)
Assay type: in vivo, Wistar rats
Design: Mean concentration in brain: unit not given here
Details: single oral dose 100 mg/kg
Method: All rats had free access to food and water. Before drug administration, rats were fasted for 12 h and water was freely available.
Aqueous DMAMCL solutions were administered orally (100 mg/kg) (n = 6 rats per group). Blood and tissue samples from rats were collected at the setting time and analyzed on an ultraperformance liquid chromatography-mass spectrometry (UPLC-MS/MS) system (Waters/Micromass, Milford, MA) using noncompartmental analyses. All the biological specimens were detected at once or stored at -80°C for detection.

With CC1=C2CC[C@@](C)(O)[C@@H]2[C@H]2OC(=O)[C@@H](CN(C)C)[C@@H]2CC1 [DMAMCL, dimethylaminomicheliolide] the Kp at 0.083 h (Wistar, rat, brain, rats, 0.083h, read-out: C brain / C plasma) was 1.45, the Kp at 0.5 h (Wistar, rat, brain, rats, 0.5h, read-out: C brain / C plasma) was 1.84 and the Kp at 3 h (Wistar, rat, brain, rats, 3h, read-out: C brain / C plasma) was 1.91. For the same compound, the concentration at 3 h (Wistar, rat, brain, read-out: Concentration in rat brain) was 4.91 ± 0.869 µg/mL, the Tmax (Wistar, rat, brain, read-out: Time of peak concentration in rat brain) was 30 min and the concentration at 3 h (Wistar, rat, plasma, read-out: Concentration in plasma) was 2.57 ± 0.968 µg/mL. The “Concentration in brain compared with plasma” value (rats) was “higher in the brain than in plasma”, the “Concentration in tissues compared with plasma” value (rats) was “dramatically higher in almost all tissues than in plasma” and the “Mean concentration in brain” value (rats, 0.083h) was 6360. For the same compound, the “Mean concentration in plasma” value (rats, 0.083h) was 4373 µg/mL, the “Mean concentration in brain” value (rats, 0.5h) was 18970 and the “Mean concentration in plasma” value (rats, 0.5h) was 10310 µg/mL. The “Mean concentration in brain” value (rats, 3h) was 4913, the “Mean concentration in plasma” value (rats, 3h) was 2567 µg/mL and the “Peak concentration in rat brain” value (0.5 hours after administration) was 18970 ± 9603 ng/mL.
